Source: ChEMBL document CHEMBL4138123, “Design, synthesis and biological evaluation of novel pyrazolochalcones as potential modulators of PI3K/Akt/mTOR pathway and inducers of apoptosis in breast cancer cells” (Eur J Med Chem, 2017)
The source made the active and inactive calls. The calls are words filed in the database; no cut-off is given here.

What was measured:
SNB-75 [1] = assay: Cytotoxicity against human SNB75 cells assessed as cell growth at 10 uM after 48 hrs by sulforhodamine B assay relative to control; format: functional; conditions: SNB-75, 48 h, read-out: Activity
CAKI-1 [2] = assay: Cytotoxicity against human Caki1 cells assessed as cell growth at 1 uM after 48 hrs by sulforhodamine B assay relative to control; format: functional; conditions: CAKI-1, 48 h, read-out: Activity
CAKI-1 [3] = assay: Cytotoxicity against human Caki1 cells assessed as cell growth at 0.1 uM after 48 hrs by sulforhodamine B assay relative to control; format: functional; conditions: CAKI-1, 48 h, read-out: Activity
MCF7 [4] = assay: Upregulation of PTEN protein expression in human MCF7 cells at 2 uM after 24 hrs by Western blot analysis; format: functional, cell-based
CAKI-1 [5] = assay: Cytotoxicity against human Caki1 cells assessed as cell growth at 0.01 uM after 48 hrs by sulforhodamine B assay relative to control; format: functional; conditions: CAKI-1, 48 h, read-out: Activity
CAKI-1 [6] = assay: Cytotoxicity against human Caki1 cells assessed as growth inhibition after 48 hrs by sulforhodamine B assay; format: functional; conditions: CAKI-1, 48 h
SF-295 [7] = assay: Cytotoxicity against human SF295 cells assessed as growth inhibition after 48 hrs by sulforhodamine B assay; format: functional; conditions: SF-295, 48 h
SF-295 [8] = assay: Cytotoxicity against human SF295 cells assessed as cell growth at 0.01 uM after 48 hrs by sulforhodamine B assay relative to control; format: functional; conditions: SF-295, 48 h, read-out: Activity
MCF7 [9] = assay: Downregulation of PI3K mRNA expression in human MCF7 cells at 2 uM after 48 hrs by qRT-PCR analysis; format: functional, cell-based
SNB-75 [10] = assay: Cytotoxicity against human SNB75 cells assessed as cell growth at 0.1 uM after 48 hrs by sulforhodamine B assay relative to control; format: functional; conditions: SNB-75, 48 h, read-out: Activity
SNB-75 [11] = assay: Cytotoxicity against human SNB75 cells assessed as growth inhibition after 48 hrs by sulforhodamine B assay; format: functional; conditions: SNB-75, 48 h
MCF7 [12] = assay: Induction of intrinsic apoptosis in human MCF7 cells assessed as effect on mitochondrial membrane depolarization by measuring mean fluorescence intensity at 2 uM after 18 hrs by DiOC6 staining-based FACS analysis (reference value: 463); format: functional
MCF7 [13] = assay: Induction of apoptosis in human MCF7 cells assessed as early apoptotic cells at 2 uM after 24 hrs by Annexin-V FITC/propidium iodide staining-based FACS analysis (reference value: 0.5%); format: functional
SNB-75 [14] = assay: Cytotoxicity against human SNB75 cells assessed as cell growth at 1 uM after 48 hrs by sulforhodamine B assay relative to control; format: functional; conditions: SNB-75, 48 h, read-out: Activity
SF-295 [15] = assay: Cytotoxicity against human SF295 cells assessed as cell growth at 0.1 uM after 48 hrs by sulforhodamine B assay relative to control; format: functional; conditions: SF-295, 48 h, read-out: Activity
MCF7 [16] = assay: Downregulation of Akt protein expression in human MCF7 cells at 2 uM after 24 hrs by Western blot analysis; format: functional, cell-based
SF-295 [17] = assay: Cytotoxicity against human SF295 cells assessed as cell growth at 100 uM after 48 hrs by sulforhodamine B assay relative to control; format: functional; conditions: SF-295, 48 h, read-out: Activity
MCF7 [18] = assay: Cell cycle arrest in human MCF7 cells assessed as accumulation at S phase at 2 uM after 24 hrs by flow cytometric analysis (reference value: 79.1%); format: functional
MCF7 [19] = assay: Induction of apoptosis in human MCF7 cells assessed as necrotic cells at 2 uM after 24 hrs by Annexin-V FITC/propidium iodide staining-based FACS analysis (reference value: 0.2%); format: functional
MCF7 [20] = assay: Downregulation of mTOR protein expression in human MCF7 cells at 2 uM after 24 hrs by Western blot analysis; format: functional, cell-based
SF-295 [21] = assay: Cytotoxicity against human SF295 cells assessed as cell growth at 1 uM after 48 hrs by sulforhodamine B assay relative to control; format: functional; conditions: SF-295, 48 h, read-out: Activity
CAKI-1 [22] = assay: Cytotoxicity against human Caki1 cells assessed as cell growth at 10 uM after 48 hrs by sulforhodamine B assay relative to control; format: functional; conditions: CAKI-1, 48 h, read-out: Activity
MCF7 [23] = assay: Cell cycle arrest in human MCF7 cells assessed as accumulation at G2/M phase at 2 uM after 48 hrs by flow cytometric analysis (reference value: 8.1%); format: functional
CAKI-1 [24] = assay: Cytotoxicity against human Caki1 cells assessed as cell growth at 100 uM after 48 hrs by sulforhodamine B assay relative to control; format: functional; conditions: CAKI-1, 48 h, read-out: Activity
SNB-75 [25] = assay: Cytotoxicity against human SNB75 cells assessed as cell growth at 100 uM after 48 hrs by sulforhodamine B assay relative to control; format: functional; conditions: SNB-75, 48 h, read-out: Activity
SF-295 [26] = assay: Cytotoxicity against human SF295 cells assessed as cell growth at 10 uM after 48 hrs by sulforhodamine B assay relative to control; format: functional; conditions: SF-295, 48 h, read-out: Activity

Row | SMILES | growth at 10 µM (SNB-75 [1]) [%] | growth at 1 µM (CAKI-1 [2]) [%] | growth at 0.1 µM (CAKI-1 [3]) [%] | Activity (MCF7 [4]) | growth at 0.01 µM (CAKI-1 [5]) [%] | GI50 (CAKI-1 [6]) [µM] | LC50 (CAKI-1 [6]) [µM] | TGI (CAKI-1 [6]) [µM] | GI50 (SF-295 [7]) [µM] | LC50 (SF-295 [7]) [µM] | TGI (SF-295 [7]) [µM] | growth at 0.01 µM (SF-295 [8]) [%] | Activity (MCF7 [9]) | growth at 0.1 µM (SNB-75 [10]) [%] | GI50 (SNB-75 [11]) [µM] | LC50 (concentration killing 50% of cells) (SNB-75 [11]) [µM] | TGI (SNB-75 [11]) [µM] | Flu intensity (MCF7 [12]) | Activity (MCF7 [13]) [%] | growth at 1 µM (SNB-75 [14]) [%] | further results
1 | COc1ccc(-c2cc(/C=C/C(=O)c3ccc(OC)c(OC)c3)[nH]n2)cc1 | -53 | 77 | 96 | Active | 98 | 1.55 | 7.96 | 3.52 | 2.08 | 22 | 5.37 | 98 | Active | 79 | 1.55 | 9.51 | 3.84 | 355 | 1.1 | 74 | growth at 0.1 µM (SF-295 [15]): 97%; Activity (MCF7 [16]): Active; growth at 100 µM (SF-295 [17]): -83%; Activity (MCF7 [18]): 66.1%; Activity (MCF7 [19]): 0.7%; Activity (MCF7 [20]): Active; growth at 1 µM (SF-295 [21]): 88%; growth at 10 µM (CAKI-1 [22]): -64%; Activity (MCF7 [23]): 16.5%; growth at 100 µM (CAKI-1 [24]): -70%; growth at 100 µM (SNB-75 [25]): -100%; growth at 10 µM (SF-295 [26]): -33%
2 | COc1cc(C(=O)/C=C/c2cc(-c3ccc4c(c3)OCO4)n[nH]2)cc(OC)c1OC | -14 | 83 | 97 | Active | 96 | 1.99 | 26.1 | 5.65 | 2.58 | 36.4 | 10.1 | 93 | Active | 87 | 2.4 | 26.1 | 7.27 | 313 | 0.7 | 90 | growth at 0.1 µM (SF-295 [15]): 95%; Activity (MCF7 [16]): Active; growth at 100 µM (SF-295 [17]): -89%; Activity (MCF7 [18]): 0%; Activity (MCF7 [19]): 0.1%; Activity (MCF7 [20]): Active; growth at 1 µM (SF-295 [21]): 85%; growth at 10 µM (CAKI-1 [22]): -27%; Activity (MCF7 [23]): 1.98%; growth at 100 µM (CAKI-1 [24]): -82%; growth at 100 µM (SNB-75 [25]): -100%
